According to patent US11497694B2, “Oral care compositions” (Colgate-Palmolive Company, priority 2017, dated 2022):

Test system: bacteria
Test: Stabilizing effect of lysine on CPC-STPP / CPC-DV interaction (bacterial viability)
Assay type: cell-based
Conditions: PBS 100
Description: Compositions were created to test the stabilizing effect that lysine had on the CPC and DV polymer. Mouthwashes were created according to the method of Example 1. Each sample was created with CPC and either STPP or DV. The compositions also contained varied amounts of lysine. The samples created are summarized below.

CCO [Ethanol]
Bacterial Viability at pH 4.6 (%) (CPC-DV mouthwashes with varied lysine, pH 4.6): 11%
Bacterial Viability at pH 6.0 (%) (CPC-DV mouthwashes with varied lysine, pH 6.0): 19%
Bacterial Viability (%) (CPC-STPP mouthwashes with varied lysine): 23%
